Data published in PubChem BioAssay (NCI).
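Compound exposure: 48 hours, 5 concentrations, 96-well plates. TGI marks complete inhibition of growth.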

Assays:
Assay in all cases: inhibition of tumour cell growth, NCI panel, 48 h
NCI/ADR-RES ovarian = test system: NCI/ADR-RES ovarian
DU-145 prostate = test system: DU-145 prostate
HS 578T breast = test system: HS 578T breast
TK-10 renal = test system: TK-10 renal
M14 melanoma = test system: M14 melanoma
MDA-N = test system: MDA-N
RXF 393 renal = test system: RXF 393 renal
A498 renal = test system: A498 renal
HOP-62 NSCLC = test system: HOP-62 NSCLC
MDA-MB-435 = test system: MDA-MB-435
OVCAR-8 ovarian = test system: OVCAR-8 ovarian
MDA-MB-231 breast = test system: MDA-MB-231 breast
SR leukemia = test system: SR leukemia
SF-539 CNS = test system: SF-539 CNS
DLD-1 colon = test system: DLD-1 colon
LXFL 529 NSCLC = test system: LXFL 529 NSCLC
SNB-78 CNS = test system: SNB-78 CNS
DMS 273 small cell lung = test system: DMS 273 small cell lung
XF 498 CNS = test system: XF 498 CNS
MCF7 breast = test system: MCF7 breast

Measured: TGI

NC(=O)NC(CC(=O)O)C(=O)O (configuration not stated)
not listed: SF-539 CNS | DLD-1 colon | LXFL 529 NSCLC | SNB-78 CNS | DMS 273 small cell lung | XF 498 CNS | MCF7 breast
> 100 µM: all other assays above

COc1cc(C2c3cc4c(cc3OC3(O)COC(=O)C23)OCO4)cc(OC)c1OC (configuration not stated)
96.7 µM: XF 498 CNS
91.5 µM: RXF 393 renal
> 100 µM: DLD-1 colon | TK-10 renal | LXFL 529 NSCLC | M14 melanoma | SNB-78 CNS | DMS 273 small cell lung | A498 renal | HOP-62 NSCLC | OVCAR-8 ovarian
79.3 µM: SF-539 CNS
59.1 µM: SR leukemia

CCOc1ccc(C2=C(Cl)c3cc(OC)c(OC)cc3C2Cl)cc1 (configuration not stated)
> 100 µM: SF-539 CNS | DLD-1 colon | TK-10 renal | LXFL 529 NSCLC | M14 melanoma | SNB-78 CNS | DMS 273 small cell lung | OVCAR-8 ovarian
90.4 µM: A498 renal
42.9 µM: XF 498 CNS

COc1ccc2c(C)cc(N/N=C/c3sccc3C)nc2c1
27.3 µM: MDA-N
28.4 µM: HOP-62 NSCLC
36.7 µM: HS 578T breast
23.3 µM: DU-145 prostate
32 µM: RXF 393 renal
35.4 µM: MDA-MB-435
26.1 µM: MCF7 breast
26.2 µM: NCI/ADR-RES ovarian
5.9 µM: MDA-MB-231 breast
87.3 µM: SR leukemia
27.5 µM: SF-539 CNS
24.1 µM: M14 melanoma
30.3 µM: OVCAR-8 ovarian
43.3 µM: TK-10 renal

CC(=O)Nc1ccc(C2=N/C(=C\c3ccc(Cl)c(Cl)c3)C(=O)O2)cc1
not listed: NCI/ADR-RES ovarian | DU-145 prostate | HS 578T breast | MDA-N | MDA-MB-435 | MDA-MB-231 breast | MCF7 breast
> 100 µM: all other assays above

COc1ccc(N2C(=O)C3c4[nH]c5ccccc5c4C4CCCCCCCC4C3C2=O)cc1 (configuration not stated)
not listed: DLD-1 colon | LXFL 529 NSCLC | SNB-78 CNS | DMS 273 small cell lung | XF 498 CNS
> 10 µM: all other assays above

COc1cc(C2C(Cl)C(=O)N2NC(=O)c2ccc(NC(C)=O)cc2)cc(Br)c1O (configuration not stated)
> 100 µM: SF-539 CNS | DLD-1 colon | TK-10 renal | LXFL 529 NSCLC | HOP-62 NSCLC | OVCAR-8 ovarian | SR leukemia

CCCCC(NC(=O)CC)C(=O)O (configuration not stated)
> 100 µM: MCF7 breast | NCI/ADR-RES ovarian | SF-539 CNS | DLD-1 colon | SNB-78 CNS | DMS 273 small cell lung | A498 renal | HOP-62 NSCLC | XF 498 CNS | OVCAR-8 ovarian

CN1C[C@H]2[C@@H](C1=O)[C@H](c1ccc([N+](=O)[O-])cc1)ON2C
not listed: RXF 393 renal | A498 renal | SF-539 CNS | DLD-1 colon | LXFL 529 NSCLC | SNB-78 CNS | DMS 273 small cell lung | XF 498 CNS
> 100 µM: all other assays above
